In test [1] the test system is excretion of phenol red (secretory function of the respiratory tract). The experiment in a line: Effect on excretion of phenol red in mice. It is filed as in vivo, Kunming mice. The settings on record: for Phenol red concentration: oral gavage 2 days, trachea wash 30 min after i.p. phenol red, n = 10. As for the experimental part:
Kunming mice, female:male 1:1, weight 30-40 g, available from Guangdong Medical Laboratory Animal Center. […] Hitachi 3010 UV and visible spectrophotometer. […] After 30 min, the mice were sacrificed, and the trachea was detached. A section of the trachea from the thyroid cartilage to a branch of the trachea was excised, and placed in a test tube containing 3 ml of saline, to which 0.1 ml of a 15% sodium bicarbonate solution was then added. After centrifugation, the supernatant was taken and measured for the OD value at 546 nm. The phenol red content was calculated from a phenol red standard curve.

The subject of test [2] is ovalbumin induced atopic cough (cough variant asthma). Nature of the test: Capsaicin induced cough in ovalbumin induced atopic cough (cough variant asthma) model. The test is classed as in vivo, Hartley guinea pig. The following applies: ovalbumin-challenged guinea pigs, 7 days dosing, 50 μmol/L capsaicin 1 hr after last dose, coughs in 10 min, n = 10. As for the experimental part: (§1) 2.2 Modeling: except for the normal control group, the guinea pigs in the remaining groups were challenged by intraperitoneally injecting cyclophosphamide at a dosage of 30 mg/kg at day 1, intraperitoneally injecting 1 mL of a suspension containing 2 mg ovalbumin and 100 mg aluminium hydroxide at day 3, and injecting 1 mL of a suspension containing 0.01 mg ovalbumin and 100 mg aluminium hydroxide after 3 weeks. The guinea pigs in the normal control group were intraperitoneally injected with 1 mL of saline. After 3 weeks, all the animals for modeling were challenged by nebulization of a 1% ovalbumin solution for 90 s, and the animals in the normal control group inhaled saline for 90 s by nebulization.
(§2) The cough of guinea pig were counted as follows. 1 hr after the last dose, the guinea pigs were placed in a Buxco cough recorder, and induced to cough by using 1 mL of 50 μmol/L capsaicin, and the cough counts in 10 min (including the nebulization time) were recorded.

The subject of test [3] is acemecholine (MeCh) induced airway hyperresponsiveness. The experiment in a line: Airway responsiveness (Penh) under MeCh challenge in ovalbumin cough variant asthma model. It is filed as in vivo, Hartley guinea pig. The settings on record: Penh % relative to normal saline challenge, n = 10. As for the experimental part:
as §1, §2
2.4 Determination of airway responsiveness (AR) in guinea pig: 24 hrs after cough determination, the enhanced pause (Penh) of guinea pig was determined in the Buxco whole body plethysmograph, and the variation in Penh after challenge by nebulization of acemecholine (MeCh) was measured.
The acemecholine (MeCh) concentrations used for challenging were respectively, from low to high, 100 mg/L, 200 mg/L, 400 mg/L, 800 mg/L, and 1600 mg/L. The average Penh upon challenge with each level of MeCh was recorded, and converted into percentages (Penh %) relative to the Penh value upon challenge with normal saline (NS), which was used as an evaluation criterion for AR.

Test [4] deals with inflammatory cells in bronchial alveolar lavage fluid. The experiment in a line: Differential leukocyte counts in bronchial alveolar lavage fluid, ovalbumin cough variant asthma model. The test is classed as in vivo, Hartley guinea pig. The following applies: BALF. As for the experimental part: as §1, §2
2.5 Bronchoalveolar lavage and differential leukocyte counts in bronchial alveolar lavage fluid (BALF): After AR determination, the guinea pigs were anesthetized with 30 mg/kg of pentobarbital sodium. Then, the neck skin was cut, and a median incision was made on the trachea, in which a tracheal cannula was inserted. Bronchoalveolar lavage was performed with 5 mL of saline. This was repeated 3 times, and the bronchial alveolar lavage fluid was collected. All the bronchial alveolar lavage fluid was centrifuged at 4° C. and 1500 rpm for 10 min, and the supernatant was stored at −80° C. for later use.

The test system of test [5] is citric acid induced cough. The experiment in a line: Inhibition on citric acid induced cough in guinea pig. It is filed as in vivo, Hartley guinea pigs. As for the experimental part: 1.1 Test animals: qualified Hartley guinea pigs, weight 250-300 g, female:male 1:1, available from Guangdong Medical Laboratory Animal Center.
1.3 Instrument: YLS-8A cough and asthma inducing instrument (a product available from Equipment Station of Shandong Academy of Medical Sciences).
The guinea pigs in each group were administered by oral gavage at a dosage of 0.5 ml/100 g of body weight, and equal volume of saline was given to the animals in the blank control group. 1 h after administration by oral gavage, the animals received spray of citric acid for 7 min. After the spray was completed, the cough counts were observed and recorded in ten minutes from the start of the spray (the typical cough is loud and clear and often accompanied by a forward rush).

Test [6] in a line: Effect of naringin in combination with other drugs. The following applies: used in combination with naringin.

Ten compounds from US20160303156A1 (priority 2014, published 2016) can be followed below.

Where a name gives a salt, the structure may show the parent alone. Marks after values point to notes of the source that are not given here.

As to `Nc1c(Br)cc(Br)cc1CN[C@H]1CC[C@H](O)CC1` [Ambroxol, ambroxol], in test [1], the Phenol red concentration was 1.55 ± 0.46 ^ μg/ml.
For `C[C@@H]1O[C@@H](O[C@H]2[C@H](Oc3cc(O)c4c(c3)O[C@H](c3ccc(O)cc3)CC4=O)O[C@H](CO)[C@@H](O)[C@@H]2O)[C@H](O)[C@H](O)[C@H]1O` [Naringin, naringin], in test [2], the Cough counts is given as 12.9 ± 4.3 ^. The “Airway responsiveness under challenge with MeCh” value in test [3] (MeCh 100 mg/L) turned out to be 276 ± 69; in test [3] (MeCh 200 mg/L), 783 ± 147; in test [3] (MeCh 400 mg/L) it was 857 ± 108; in test [3] (MeCh 800 mg/L), 1636 ± 169; in test [3] (MeCh 1600 mg/L), 2749 ± 253. Besides, the “Reduction of total leukocyte, lymphocyte, neutrophil and eosinophil counts (in words)” value in test [4] is “significantly reduce”. Besides, the Lymphocyte counts in test [4] (guinea pigs, n = 10) is 21.5 ± 3.7** 10^7/L. The Neutrophil counts in test [4] (guinea pigs, n = 10) is reported as 30.1 ± 6.5** 10^7/L. Further, the Total leukocyte counts in test [4] (guinea pigs, n = 10) is listed as 135.5 ± 28.6** 10^7/L. Moreover, in test [1], the “Effect on excretion of phenol red / sputum reducing effect (in words)” value was “obviously enhance the excretion of phenol red”. Further, the Phenol red concentration in test [1] is on record as 1.64 ± 0.67 ^ μg/ml. For the same compound, the “Cough relieving effect (in words)” value in test [5] (citric acid induced cough) is on record as “obvious cough relieving effect”. In addition, the Cough count in test [5] (oral gavage, citric acid spray 7 min 1 h after dosing, coughs in ten minutes, n = 8) is 22.4 ± 3.7 ^.
Take `CN1CCCC(n2nc(Cc3ccc(Cl)cc3)c3ccccc3c2=O)CC1` (centres unmarked) [azelastine hydrochloride]: the “Synergistic effect in combination with naringin” value (shortened to “Synergistic effect”) in test [6] was “no synergistic effect”.
Still for that read-out and setting: for `CN(C)CCC(c1ccc(Cl)cc1)c1ccccn1` (centres unmarked) [chlorpheniramine maleate] the value was “no synergistic effect”; for `Clc1ccc2c(c1)CCc1cccnc1C2=C1CCNCC1` [desloratadine], “no synergistic effect”.
The same measure, in the same setting: to `NC1=NCC2c3ccccc3Cc3ccccc3N12` (centres unmarked) [epinastine hydrochloride] belongs “no synergistic effect”.
Consider `CCOC(=O)N1CCC(=C2c3ccc(Cl)cc3CCc3cccnc32)CC1` [loratadine], for which the “Synergistic effect” value in test [6] was “no synergistic effect”.
In the case of `CN(c1nccc(=O)[nH]1)C1CCN(c2nc3ccccc3n2Cc2ccc(F)cc2)CC1` [mizolastine], in test [6], the “Synergistic effect” value was “no synergistic effect”.
On the same count and under the same terms, to dimenhydrinate hydrochloride belongs “no synergistic effect”.
On the same count and under the same terms, for theohydramine hydrochloride the value was “no synergistic effect”.
